“Also recorded” adds a separate entry of the source. Read-outs that look alike come from different tables or passages of the source.
How the values were obtained:
[1] = biological target: T1, PDI (Homo sapiens, UniProt P07237); experiment: SDS-PAGE molecular weight shift (alkylation of PDI free thiols); format: biochemical
T1 construct: FLAG; made in house; host or cells: Escherichia coli Origami B (DE3)
Source text: FIG. 5 is an image of gel showing detection of PDI free thiol by the labeling of acetamido maleimidylstilbene disulfonic acid (AMS), which shifts the protein to a higher apparent molecular weight.
4-acetomido-4′-maleimidylstilbene-2,2′ disulfonic acid (AMS), which shifts the mass of the protein by 500 Da for every cysteine alkylated, was used as a positive control. […] N-ethylmaleimide (NEM) was used for a control experiment because covalent alkylation of the free thiols will expectedly prevent PDI activity (FIG. 6A).

[2] = biological target: T1, PDI; experiment: Di-eosin-GSSG disulfide reductase assay, PDI; format: biochemical
Procedure: (§1) Di-eosin-GSSG disulfide reductase assay. The probe di-eosin glutathione disulfide, di-eosin-GSSG, was prepared by incubating 100 μM of GSSG with 1 mM of eosin isothiocyanate in 100 mM potassium phosphate containing 2 mM EDTA (pH 7.4), at 25° C. overnight in the dark. The mixture was passed down a PD-10 column and different fractions were collected. A fold change of fluorescence (Ex: 520 nm, Em: 550 nm) was calculated using samples subjected to either vehicle or 20 mM of DTT. Any fraction with a fold change >5 was kept. Using a stock of 10 mM eosin isothiocyanate, a standard curve was generated and concentration of samples were determined accordingly. Di-eosin-GSSG cleavage of purified thiol isomerases and PDI domains was monitored in a 96-well fluorescence plate format. PDI, CGXC-PDI variants, ERp5, ERp57, ERp46 and PDI domains were assayed at 50 nM in the presence or absence of the indicated small molecules. The assay included a thiol isomerase assay buffer (39 mM KH2PO4, 61 mM K2HPO4, 2 mM EDTA, 5 M DTT, pH 7.4) and 150 nM of the di-eosin-GSSG probe. The increase in fluorescence was determined for 60 min by excitation at 520 nm and emission at 550 nm in a Synergy Biotek 4. The reduction of 150 nM di-eosin-GSSG by 5 μM DTT in the presence or absence of mentioned small molecule or proteins served as a negative control.

[3] = test system: recombinant PDI, ERp57, and ERp5; experiment: Di-eosin-GSSG assay, thiol isomerases at 20 μM compound; format: biochemical; conditions: 15 minute incubation
[4] = biological target: T1, PDI; experiment: Insulin reductase assay; format: biochemical; conditions: 20 μM
Procedure: Insulin reductase assay. Insulin was prepared by mixing 12.5 mg/mL insulin in 50 mM Tris-HCl, pH 8. 1 M HCl was carefully added to drop the pH to 2.0 for solution clarification. Once the solution clarifies, 1 M NaOH was added to rapidly adjust the pH back to 8.0. The solution was then adjusted to 1.5 mM (10 mg/mL) with 50 mM Tris-HCl, aliquoted and stored in −20° C. until use. 2× concentrations of thiol isomerases were prepared (final concentrations as indicated in each assay) and mixed with 1.2 mM DTT (final 0.3 mM) and 0.4 mM insulin (final 0.1 mM) using a thiol isomerase activity assay buffer. Insulin precipitation from enzyme-mediated reduction was assayed in 96-well clear bottom plates at 650 nm absorption.

[5] = test system: PDI domain fragments (a, a′, ab, abb′, b′xa′); experiment: Di-eosin-GSSG assay on isolated PDI domain fragments; format: biochemical; conditions: for inhibition of isolated a′ domain cleavage of di-eosin-GSSG: 20 μM
Procedure: as §1

[6] = biological target: SARS-CoV-2 M^pro (Severe acute respiratory syndrome coronavirus 2, UniProt P0DTD1); conditions: literature values (Table 2); read-out: SARS-CoV-2 M^pro inhibition; cited from earlier work
[7] = test system: SARS-CoV-2; conditions: cited from earlier work
[8] = Table 1, IC50 curves on PDI activity (FIGS. 13B-E, 17A-E), read-out: Relative PDI inhibition

T1 sequence (P07237 18-508): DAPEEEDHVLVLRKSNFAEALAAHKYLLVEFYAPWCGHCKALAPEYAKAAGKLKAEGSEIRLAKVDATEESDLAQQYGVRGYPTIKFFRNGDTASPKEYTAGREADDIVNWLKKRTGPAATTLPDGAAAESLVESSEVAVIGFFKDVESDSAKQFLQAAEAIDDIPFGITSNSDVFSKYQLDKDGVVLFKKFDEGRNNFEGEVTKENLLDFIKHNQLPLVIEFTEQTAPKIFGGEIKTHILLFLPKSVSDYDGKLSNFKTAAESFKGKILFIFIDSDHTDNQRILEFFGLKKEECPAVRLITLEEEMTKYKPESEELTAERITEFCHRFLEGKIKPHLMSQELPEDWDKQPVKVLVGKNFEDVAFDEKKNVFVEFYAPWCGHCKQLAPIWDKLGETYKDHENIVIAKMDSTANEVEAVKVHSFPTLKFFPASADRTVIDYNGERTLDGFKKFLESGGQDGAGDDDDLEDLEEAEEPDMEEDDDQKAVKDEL

Molecule: CC(=O)Nc1ccc(C=Cc2ccc(N3C(=O)C=CC3=O)cc2S(=O)(=O)O)c(S(=O)(=O)O)c1 [AMS, 4-acetomido-4′-maleimidylstilbene-2,2′ disulfonic acid, reference compound]
- shift in molecular weight of PDI in SDS polyacrylamide gel [1]: induced a slight increase in molecular mass

Molecule: Oc1cc(O)c2c(c1)O[C@H](c1cc(O)c(O)c(O)c1)[C@H](O)C2 [EGC, epigallocatechin]
- inhibition of PDI (in words) [2]: did not inhibit PDI; also recorded: inactive compounds against PDI
- IC50 [2, 8]: > 500 µM
- inhibition of thiol isomerases (PDI, ERp57, ERp5) in words [3]: relatively little activity

Molecule: O=C(O[C@@H]1Cc2c(O)cc(O)cc2O[C@@H]1c1cc(O)c(O)c(O)c1)c1cc(O)c(O)c(O)c1 [EGCG, epigallocatechin gallate]
- inhibition of PDI (in words) [2]: did not inhibit PDI; also recorded: inactive compounds against PDI
- IC50 [2, 8]: 243 µM
- inhibition of thiol isomerases (PDI, ERp57, ERp5) in words [3]: relatively little activity

Molecule: O=C(O)c1cc(O)c(O)c(O)c1 [Gallic Acid, 3,4,5-trihydroxybenzoic acid]
- IC50 [2]: > 500 µM
- inhibition of PDI (in words) [2]: inactive compounds against PDI
- inhibition of PDI (in words) ([2]; listed as gallate): failed to inhibit PDI
- inhibition of thiol isomerases (PDI, ERp57, ERp5) in words [3]: Neither pinocembrin, gallic acid nor glucose showed substantial activity against thiol isomerases

Molecule: O=C1C[C@@H](c2ccccc2)Oc2cc(O)cc(O)c21 [Pinocembrin]
- inhibition of PDI (in words) [2]: failed to inhibit PDI
- IC50 [2, 8]: > 500 µM
- inhibition of thiol isomerases (PDI, ERp57, ERp5) in words [3]: no activity

Molecule: O=C(O[C@@H]1Cc2c(O)cc(O)cc2O[C@@H]1c1cc(=O)c(O)c2c(O)c(O)cc([C@H]3Oc4cc(O)cc(O)c4C[C@H]3O)c2c1)c1cc(O)c(O)c(O)c1 [Theaflavin 3-gallate]
- IC50 [2, 8]: 3.4 µM
- inhibition of the ability of PDI to reduce insulin [4]: inhibited the ability of PDI to reduce insulin
- inhibition of isolated a′ domain cleavage of di-eosin-GSSG [5]: inhibited the ability of isolated a′ domain to cleave di-eosin-GSSG
- inhibition of thiol isomerases (PDI, ERp57, ERp5) in words [3]: strong inhibition of all three thiol isomerases
- IC50 [6]: 18.5 µM
- reduction of viral counts ([7]; Vero cell assay): 75%
- Inhibition of viral replication (cell system in which shown) [7]: Vero Cells

Molecule: O=c1c(O)cc([C@H]2Oc3cc(O)cc(O)c3C[C@H]2O)cc2c([C@H]3Oc4cc(O)cc(O)c4C[C@H]3O)cc(O)c(O)c12 [Theaflavin]
- inhibition of PDI (in words) [2]: failed to inhibit PDI; also recorded: inactive compounds against PDI
- IC50 [2, 8]: > 500 µM
- inhibition of thiol isomerases (PDI, ERp57, ERp5) in words [3]: poor inhibition

Molecule: O=c1cc(-c2ccc(O)cc2)oc2cc(O)cc(O)c12 [apigenin, reference compound]
- inhibition of SARS-CoV-2 / infection (in words) [7]: inhibitors of SARS-CoV-2

Molecule: theaflavin 3-3′-digallate [Theaflavin 3,3′-gallate]
- inhibition of isolated a′ domain cleavage of di-eosin-GSSG [5]: inhibited the ability of isolated a′ domain to cleave di-eosin-GSSG
- inhibition of isolated PDI fragments ([5]; a, ab, b′xa′, abb′ fragments, PGHG at 10 μM): inhibited isolated a and a′ fragments as well as ab, b′xa′ and abb′x fragments
- inhibition of thiol isomerases (PDI, ERp57, ERp5) in words [3]: strong inhibition of all three thiol isomerases
- Inhibition of viral replication (cell system in which shown) [7]: VeroE6/TMPRSS2
